{"source": "patent US6720342B2", "about": "“Heterocyclic compounds and their preparation and use” (Novo Nordisk A/S, priority 1996, dated 2004)", "note": "Where a name gives a salt, the structure may show the parent alone.", "data": [{"target": "muscarinic acetylcholine receptors", "assay": "Inhibition of specific binding of 3H-Oxotremorine-M (3H-Oxo) to rat cortex membranes", "details": "rat cortex homogenate, 1.0 nM 3H-Oxotremorine, 30 min at 25° C.", "excerpt": "The pharmacological properties of the compounds of the invention can be illustrated by determining their capability to inhibit the specific binding of ^3H-Oxotremorine-M (^3H-Oxo). Birdsdall N. J. M., Hulme E. C., and Burgen A. S. V. (1980). “The Character of Muscarinic Receptors in Different Regions of the Rat Brain”. Proc. Roy. Soc. London (Series B) 207, 1.\n^3H-Oxo labels muscarinic receptor in the CNS (with a preference for agonist domains of the receptors). Three different sites are labelled by ^3H-Oxo. […] Using the present experimental conditions only the high and medium affinity sites are determined.\nThe inhibitory effects of compounds on ^3H-Oxo binding reflects the affinity for muscarinic acetylcholine receptors.\n(§1) All preparations are performed at 0-4° C. unless otherwise indicated. Fresh cortex (0.1-1 g) from male Wistar rats (150-250 g) is homogenized for 5-10 s in 10 ml 20 mM Hepes pH: 7.4, with an Ultra-Turrax homogenizer. The homogenizer is rinsed with 10 ml of buffer and the combined suspension centrifuged for 15 min. at 40,000×g. The pellet is washed three times with buffer. In each step the pellet is homogenized as before in 2×10 ml of buffer and centrifuged for 10 min. at 40,000×g.\nThe final pellet is homogenized in 20 mM Hepes pH: 7.4 (100 ml per g of original tissue) and used for binding assay. Aliquots of 0.5 ml is added 25 μl of test solution and 25 μl of ^3H-Oxotremorine (1.0 nM, final concentration) mixed and incubated for 30 min. at 25° C. Non-specific binding is determined in triplicate using arecoline (1 μg/ml, final concentration) as the test substance. After incubation samples are added 5 ml of ice-cold buffer and poured directly onto Whatman GF/C glass fiber filters under suction and immediately washed 2 times with 5 ml of ice-cold buffer. The amount of radioactivity on the filters are determined by conventional liquid scintillation counting. Specific binding is total binding minus non specific binding.\nTest substances are dissolved in 10 ml water (if necessary heated on a steambath for less than 5 min.) at a concentration of 2.2 mg/ml. 25-75% inhibition of specific binding must be obtained before calculation of IC50.\nThe test value will be given as IC50 (the concentration (nM) of the test substance which inhibits the specific binding of ^3H-Oxo by 50%).\n(§2) IC50=(applied test substance concentration)×(Cx/Co−Cx)nM\n(§3) where Co is specific binding in control assays and Cx is the specific binding in the test assay. (The calculations assume normal mass-action kinetics).", "units": {"IC50": "nM"}, "values": [{"smiles": "CC(C#Cc1ccc(F)cc1)=CCOc1nsnc1OC1CN2CCC1C2", "note": "(stereo not drawn) [Compound 22, Endo (E)-3-(3-(5-(4-fluorophenyl)-3-methyl-2-penten-4-yn-1-yloxy)-1,2,5-thiadiazol-4-yloxy)-1-azabicyclo[2.2.1]heptane]", "IC50": 190}]}, {"target": "T1, muscarinic receptors (M1-site, pirenzepine sensitive site) (Rattus norvegicus, UniProt P08482)", "T1 construct": "Fresh cortex (0.1-1 g) from male Wistar rats (150-200 g) is homogenized; from tissue; host or cells: rat (male Wistar) cerebral cortex membranes", "T1 sequence (P08482 1-460)": "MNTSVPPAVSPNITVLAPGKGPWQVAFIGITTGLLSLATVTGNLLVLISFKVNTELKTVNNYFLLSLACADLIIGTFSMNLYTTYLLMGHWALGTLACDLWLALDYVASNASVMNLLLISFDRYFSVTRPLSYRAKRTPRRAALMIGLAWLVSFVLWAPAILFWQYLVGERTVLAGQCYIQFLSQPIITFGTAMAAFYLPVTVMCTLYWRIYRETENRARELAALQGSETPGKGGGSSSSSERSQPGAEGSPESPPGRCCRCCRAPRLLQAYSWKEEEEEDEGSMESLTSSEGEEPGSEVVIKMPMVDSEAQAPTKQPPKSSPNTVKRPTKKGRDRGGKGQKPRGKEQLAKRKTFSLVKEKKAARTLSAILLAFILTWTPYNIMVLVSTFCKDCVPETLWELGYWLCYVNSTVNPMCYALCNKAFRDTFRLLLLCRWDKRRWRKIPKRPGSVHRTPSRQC", "assay": "Inhibition of 3H-PRZ (pirenzepine, [N-methyl-3H]) binding to rat cerebral cortex membranes", "details": "1.0 nM 3H-Pirenzepine, 60 min at 20° C.", "protocol": "Furthermore the pharmacological properties of the compounds of the invention can also be illustrated by determining their capability to inhibit ^3H-PRZ (pirenzepine, [N-methyl-^3H]) binding to rat cerebral cortex membranes. Pirenzepine binds selectively to subtype of muscarinic receptors. Historically the type is named the M1-site, whereas pirenzepine sensitive site would be more appropriate. Although selective for M1-sites pirenzepine also interact with M2-sites.\nas §1, with “rats (150-200” for “rats (150-250”, “5-10 s.” for “5-10 s”, “with 2×10” for “with 10”, “15 min” for “15 min.”, “in 3×10” for “in 2×10”, “10 min” for “10 min.”\nThe final pellet is homogenized in 20 mM Hepes pH: 7.4 (100 ml per g of original tissue) and used for binding assay. Aliquots of 0.5 ml is added 20 μl of test solution and 25 μl of ^3H-Pirenzepine (1.0 nM, final conc.), mixed and incubated for 60 min at 20° C. Non-specific binding is determined in triplicate using atropine (1 μg/ml, final conc.) as the test substance. After incubation samples are added 5 ml of ice-cold buffer and poured directly onto Whatman GF/C glass fiber filters under suction and immediately washed 2 times with 5 ml of ice-cold buffer. The amount of radioactivity on the filters are determined by conventional liquid scintillation counting. Specific binding is total binding minus non-specific binding.\nTest substances are dissolved in 10 ml water, at a concentration of 0.22 mg/ml. 25-75% inhibition of specific binding must be obtained before calculation of IC50.\nThe test value will be given as IC50 (the concentration (nM) of the test substance which inhibits the specific binding of ^3H-PRZ by 50%).\nas §2, §3", "units": {"IC50": "nM"}, "values": [{"smiles": "CC(C#Cc1ccc(F)cc1)=CCOc1nsnc1OC1CN2CCC1C2", "note": "(stereo not drawn) [Compound 22, Endo (E)-3-(3-(5-(4-fluorophenyl)-3-methyl-2-penten-4-yn-1-yloxy)-1,2,5-thiadiazol-4-yloxy)-1-azabicyclo[2.2.1]heptane]", "IC50": 50}]}, {"system": "not given", "assay": "not given", "details": "not given", "units": {"melting point": "°C"}, "values": [{"smiles": "FC(F)(F)Oc1ccc(COc2nsnc2OC2CN3CCC2C3)cc1", "note": "(stereo not drawn) (as salt: oxalate) [Compound 14, Endo 3-(3-[4-trifluoromethoxybenzyloxy]-1,2,5-thiadiazol-4-yloxy)-1-azabicyclo[2.2.1]heptane, oxalate]", "melting point": "116 to 119"}, {"smiles": "FC(F)(F)CCCOc1nsnc1OC1CN2CCC1C2", "note": "(stereo not drawn) (as salt: oxalate) [Compound 15, Endo 3-(3-[4,4,4-trifluorobutyl-1-oxy]-1,2,5-thiadiazol-4-yloxy)-1-azabicyclo[2.2.1]heptane, oxalate]", "melting point": "135 to 137"}, {"smiles": "Fc1cc(C(F)(F)F)ccc1COc1nsnc1OC1CN2CCC1C2", "note": "(stereo not drawn) (as salt: oxalate) [Compound 16, Endo 3-(3-[2-fluoro-4-(trifluoromethyl)-benzyloxy]-1,2,5-thiadiazol-4-yloxy)-1-azabicyclo[2.2.1]heptane, oxalate]", "melting point": "112 to 114"}, {"smiles": "COc1cccc(C#CC(C)Oc2nsnc2OC2CN3CCC2C3)c1", "note": "(stereo not drawn) (as salt: oxalate) [Compound 17, Endo 3-(3-[4-(3-methoxyphenyl)-3-butyn-2-yloxy]-1,2,5-thiadiazol-4-yloxy)-1-azabicyclo[2.2.1]heptane, oxalate]", "melting point": "102 to 103"}, {"smiles": "Clc1ccc(C#CCOc2nsnc2OC2CN3CCC2C3)cc1", "note": "(stereo not drawn) (as salt: oxalate) [Compound 18, Endo 3-(3-[3-(4-chlorophenyl)-2-propynyl-1-oxy]-1,2,5-thiadiazol-4-yloxy)-1-azabicyclo[2.2.1]heptane, oxalate]", "melting point": "118 to 122"}, {"smiles": "CCC(C#Cc1cccc(OC)c1)Oc1nsnc1OC1CN2CCC1C2", "note": "(stereo not drawn) (as salt: oxalate) [Compound 19, Endo 3-(3-[1-(3-methoxyphenyl)-1-pentyn-3-yloxy]-1,2,5-thiadiazol-4-yloxy)-1-azabicyclo[2.2.1]heptane, oxalate]", "melting point": "98 to 101"}, {"smiles": "FC(F)(F)c1cccc(C#CCOc2nsnc2OC2CN3CCC2C3)c1", "note": "(stereo not drawn) (as salt: oxalate) [Compound 20, Endo 3-(3-(3-(3-trifluoromethylphenyl)-2-propynyl-1-oxy)-1,2,5-thiadiazol-4-yloxy)-1-azabicyclo[2.2.1]heptane, oxalate]", "melting point": "131 to 135"}, {"smiles": "C(#Cc1cccnc1)COc1nsnc1OC1CN2CCC1C2", "note": "(stereo not drawn) (as salt: oxalate) [Compound 23, Endo 3-(3-(3-pyridyl)-2-propyn-1-yloxy)-1,2,5-thiadiazol-4-yloxy)-1-azabicyclo[2.2.1]heptane, dioxalate]", "melting point": "136 to 139"}, {"smiles": "C(#Cc1ccccn1)COc1nsnc1OC1CN2CCC1C2", "note": "(stereo not drawn) (as salt: oxalate) [Compound 25, Endo 3-(3-(2-pyridyl)-2-propyn-1-yloxy)-1,2,5-thiadiazol-4-yloxy)-1-azabicyclo[2.2.1]heptane, dioxalate]", "melting point": "158 to 160"}, {"smiles": "C(#Cc1ccoc1)COc1nsnc1OC1CN2CCC1C2", "note": "(stereo not drawn) (as salt: oxalate) [Compound 26, Endo 3-(3-(3-(3-furyl)-2-propyn-1-yloxy)-1,2,5-thiadiazol-4-yloxy)-1-azabicyclo[2.2.1]heptane, oxalate]", "melting point": "146 to 148"}, {"smiles": "Fc1cccc(C#CCOc2nsnc2OC2CN3CCC2C3)c1", "note": "(stereo not drawn) (as salt: oxalate) [Compound 28, Endo 3-(3-(3-(3-fluorophenyl)-2-propyn-1-yloxy)-1,2,5-thiadiazol-4-yloxy-1-azabicyclo[2.2.1]heptane, oxalate]", "melting point": "175 to 177"}, {"smiles": "FC(F)(F)CCCSc1nsnc1OC1CN2CCC1C2", "note": "(stereo not drawn) (as salt: oxalate) [Compound 30, Endo 3-(3-(4,4,4-trifluorobutylthio)-1,2,5-thiadiazol-4-yloxy)-1-azabicyclo-[2.2.1]heptane, oxalate]", "melting point": "114 to 115"}, {"smiles": "N#Cc1ccc(CSc2nsnc2OC2CN3CCC2C3)cc1", "note": "(stereo not drawn) (as salt: oxalate) [Compound 31, Endo 3-(3-[4-cyanobenzylthio]-1,2,5-thiadiazol-4-yloxy)-1-azabicyclo-[2.2.1]heptane, oxalate]", "melting point": "196 to 197"}, {"smiles": "N#CCCSc1nsnc1OC1CN2CCC1C2", "note": "(stereo not drawn) (as salt: oxalate) [Compound 32, Endo 3-(3-[2-cyanoethylthio]-1,2,5-thiadiazol-4-yloxy)-1-azabicyclo-[2.2.1]heptane, oxalate]", "melting point": "168 to 169"}, {"smiles": "Fc1ccc(CSc2nsnc2OC2CN3CCC2C3)c(F)c1", "note": "(stereo not drawn) (as salt: oxalate) [Compound 33, Endo 3-(3-[2,4-difluorobenzylthio]-1,2,5-thiadiazol-4-yloxy)-1-azabicyclo-[2.2.1]heptane, oxalate]", "melting point": "98 to 100"}, {"smiles": "FCCSc1nsnc1OC1CN2CCC1C2", "note": "(stereo not drawn) (as salt: oxalate) [Compound 34, Endo 3-(3-[2-fluoroethyl-1-thio]-1,2,5-thiadiazol-4-yloxy)-1-azabicyclo-[2.2.1]heptane, oxalate]", "melting point": "131 to 133"}, {"smiles": "COc1cccc(C#CC(Oc2nsnc2OC2CN3CCC2C3)C(C)C)c1", "note": "(stereo not drawn) (as salt: oxalate) [Compound 39, Endo 3-(3-[1-(3-methoxyphenyl)-4-methyl-1-pentyn-3-yloxy]-1,2,5-thiadiazol-4-yloxy)-1-azabicyclo[2.2.1]heptane, oxalate]", "melting point": "144 to 147"}, {"smiles": "FC(F)(F)COc1nsnc1OC1CN2CCC1C2", "note": "(stereo not drawn) (as salt: oxalate) [Compound 40, Endo 3-(3-[2,2,2-trifluoroethyl-1-oxy]-1,2,5-thiadiazol-4-yloxy)-1-azabicyclo[2.2.1]heptane, oxalate]", "melting point": "153 to 156"}, {"smiles": "C1CC(COc2nsnc2OC2CN3CCC2C3)C1", "note": "(stereo not drawn) (as salt: oxalate) [Compound 41, Endo 3-(3-cyclobutylmethyloxy-1,2,5-thiadiazol-4-yloxy)-1-azabicyclo-[2.2.1]heptane, oxalate]", "melting point": "96 to 99"}, {"smiles": "CC(C#Cc1ccc(F)cc1)=CCOc1nsnc1OC1CN2CCC1C2", "note": "(stereo not drawn) [Compound 22, Endo (E)-3-(3-(5-(4-fluorophenyl)-3-methyl-2-penten-4-yn-1-yloxy)-1,2,5-thiadiazol-4-yloxy)-1-azabicyclo[2.2.1]heptane]", "melting point": "82 to 84"}]}]}
